Source: ChEMBL document CHEMBL4431386, “Potent selective monoamine oxidase B inhibition by maackiain, a pterocarpan from the roots of Sophora flavescens” (Bioorg Med Chem Lett, 2016)

Legend:
[1] = biological target: T1, Amine oxidase [flavin-containing] A (Mus musculus, UniProt Q64133); assay: Inhibition of mouse MAO-A preincubated for 15 mins followed by addition of kynuramine as substrate measured after 30 mins by fluorometric analysis
T1 sequence (Q64133 whole entry): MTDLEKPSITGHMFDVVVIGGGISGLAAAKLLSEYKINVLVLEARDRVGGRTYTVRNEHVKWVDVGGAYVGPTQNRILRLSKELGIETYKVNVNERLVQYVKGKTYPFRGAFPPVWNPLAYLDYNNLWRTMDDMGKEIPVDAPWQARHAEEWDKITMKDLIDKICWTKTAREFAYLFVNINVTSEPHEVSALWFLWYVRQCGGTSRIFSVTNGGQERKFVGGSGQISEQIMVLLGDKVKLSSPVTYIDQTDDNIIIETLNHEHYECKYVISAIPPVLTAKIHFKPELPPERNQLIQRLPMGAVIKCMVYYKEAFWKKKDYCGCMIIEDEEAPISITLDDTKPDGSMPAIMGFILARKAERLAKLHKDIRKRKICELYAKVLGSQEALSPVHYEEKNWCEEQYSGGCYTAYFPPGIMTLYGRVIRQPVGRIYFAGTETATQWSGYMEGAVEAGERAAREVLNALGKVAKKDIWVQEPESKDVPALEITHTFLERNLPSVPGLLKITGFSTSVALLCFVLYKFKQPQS

[2] = biological target: T2, Amine oxidase [flavin-containing] B (Homo sapiens, UniProt P27338); assay: Inhibition of recombinant human MAO-B expressed in baculovirus infected BTI insect cells preincubated for 10 mins followed by addition of benzylamine as substrate; format: cell-based
T2 sequence (P27338 whole entry): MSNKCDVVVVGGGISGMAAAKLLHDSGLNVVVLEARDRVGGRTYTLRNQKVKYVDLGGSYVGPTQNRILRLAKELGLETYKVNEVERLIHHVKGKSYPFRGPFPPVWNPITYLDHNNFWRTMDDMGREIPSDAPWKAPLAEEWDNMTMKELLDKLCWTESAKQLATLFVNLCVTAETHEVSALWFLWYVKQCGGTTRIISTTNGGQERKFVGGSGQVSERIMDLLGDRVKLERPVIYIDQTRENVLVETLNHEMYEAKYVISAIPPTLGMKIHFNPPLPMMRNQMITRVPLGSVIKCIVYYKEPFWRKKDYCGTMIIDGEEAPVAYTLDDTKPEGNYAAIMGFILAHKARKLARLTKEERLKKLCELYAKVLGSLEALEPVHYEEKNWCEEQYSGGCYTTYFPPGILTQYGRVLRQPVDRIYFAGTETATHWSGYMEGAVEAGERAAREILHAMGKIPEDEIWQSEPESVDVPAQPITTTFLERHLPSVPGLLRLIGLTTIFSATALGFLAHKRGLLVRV

Homo sapiens = species: Homo sapiens; assay: Selectivity index, ratio of IC50 for recombinant human MAO-A expressed in baculovirus infected BTI insect cells to IC50 for recombinant human MAO-B expressed in baculovirus infected BTI insect cells
[3] = biological target: T3, Amine oxidase [flavin-containing] B (Mus musculus, UniProt Q8BW75); assay: Inhibition of mouse MAO-B preincubated for 15 mins followed by addition of kynuramine as substrate measured after 30 mins by fluorometric analysis
T3 sequence (Q8BW75 whole entry): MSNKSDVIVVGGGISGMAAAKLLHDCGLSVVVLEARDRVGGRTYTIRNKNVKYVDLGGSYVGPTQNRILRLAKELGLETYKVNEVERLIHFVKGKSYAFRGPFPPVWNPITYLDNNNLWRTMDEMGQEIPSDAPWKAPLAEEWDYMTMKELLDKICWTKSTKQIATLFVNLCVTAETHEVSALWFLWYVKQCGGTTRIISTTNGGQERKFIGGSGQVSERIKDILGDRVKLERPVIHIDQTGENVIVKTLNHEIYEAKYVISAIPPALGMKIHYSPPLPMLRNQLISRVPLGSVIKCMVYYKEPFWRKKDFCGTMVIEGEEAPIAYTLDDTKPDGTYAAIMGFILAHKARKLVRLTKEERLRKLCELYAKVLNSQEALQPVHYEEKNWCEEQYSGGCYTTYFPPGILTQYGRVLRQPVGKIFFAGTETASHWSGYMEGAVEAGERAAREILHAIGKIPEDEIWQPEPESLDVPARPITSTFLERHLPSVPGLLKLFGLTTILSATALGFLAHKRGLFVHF

[4] = biological target: T4, Amine oxidase [flavin-containing] A (Homo sapiens, UniProt P21397); assay: Inhibition of recombinant human MAO-A expressed in baculovirus infected BTI insect cells preincubated for 10 mins followed by addition of kynuramine as substrate
T4 sequence (P21397 whole entry): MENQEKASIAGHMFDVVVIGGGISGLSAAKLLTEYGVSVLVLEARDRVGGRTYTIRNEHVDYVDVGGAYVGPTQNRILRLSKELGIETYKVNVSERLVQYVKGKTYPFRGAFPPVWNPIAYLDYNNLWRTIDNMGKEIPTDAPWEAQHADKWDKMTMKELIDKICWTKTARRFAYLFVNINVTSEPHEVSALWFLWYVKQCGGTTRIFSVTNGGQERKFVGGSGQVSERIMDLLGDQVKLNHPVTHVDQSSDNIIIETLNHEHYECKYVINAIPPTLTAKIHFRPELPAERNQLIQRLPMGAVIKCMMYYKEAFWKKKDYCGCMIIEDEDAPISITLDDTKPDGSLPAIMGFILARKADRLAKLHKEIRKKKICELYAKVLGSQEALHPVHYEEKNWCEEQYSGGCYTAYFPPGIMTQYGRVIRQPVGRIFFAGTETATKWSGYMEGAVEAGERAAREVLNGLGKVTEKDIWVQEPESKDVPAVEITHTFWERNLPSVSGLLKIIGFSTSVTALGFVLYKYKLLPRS

[5] = biological target: T3, Amine oxidase [flavin-containing] B; assay: Competitive inhibition of mouse brain mitochondrial MAO-B using kynuramine as substrate by Lineweaver-Burk plot analysis
[6] = biological target: T2, Amine oxidase [flavin-containing] B; assay: Time-dependent inhibition of recombinant human MAO-B expressed in baculovirus infected BTI insect cells at 8 uM pretreated with compound up to 30 mins followed by addition of benzylamine as substrate
[7] = biological target: T2, Amine oxidase [flavin-containing] B; assay: Inhibition of recombinant human MAO-B expressed in baculovirus infected BTI insect cells assessed as residual activity at 8 uM preincubated for 10 mins followed by addition of 2 mM of benzylamine as substrate; conditions: read-out: Activity
[8] = biological target: T2, Amine oxidase [flavin-containing] B; assay: Reversible inhibition of recombinant human MAO-B expressed in baculovirus infected BTI insect cells assessed as residual activity at 8 uM preincubated for 10 mins followed by addition of 2 mM of benzylamine as substrate and further addition of 2 mM of benzylamine at the end of first reaction; conditions: read-out: Activity
[9] = biological target: T2, Amine oxidase [flavin-containing] B; assay: Time-dependent inhibition of recombinant human MAO-B expressed in baculovirus infected BTI insect cells at 1.5 uM pretreated with compound up to 30 mins followed by addition of benzylamine as substrate
[10] = biological target: T2, Amine oxidase [flavin-containing] B; assay: Competitive inhibition of recombinant human MAO-B expressed in baculovirus infected BTI insect cells using benzylamine as substrate by Lineweaver-Burk plot analysis
[11] = biological target: T2, Amine oxidase [flavin-containing] B; assay: Reversible inhibition of recombinant human MAO-B expressed in baculovirus infected BTI insect cells assessed as residual activity at 1.5 uM preincubated for 10 mins followed by addition of 2 mM of benzylamine as substrate and further addition of 2 mM of benzylamine at the end of first reaction; conditions: read-out: Activity
[12] = biological target: T2, Amine oxidase [flavin-containing] B; assay: Inhibition of recombinant human MAO-B expressed in baculovirus infected BTI insect cells assessed as residual activity at 1.5 uM preincubated for 10 mins followed by addition of 2 mM of benzylamine as substrate; conditions: read-out: Activity
[13] = biological target: T2, Amine oxidase [flavin-containing] B; assay: Inhibition of recombinant human MAO-B expressed in baculovirus infected BTI insect cells assessed as residual activity at 20 uM preincubated for 10 mins followed by addition of 2 mM of benzylamine as substrate; conditions: read-out: Activity
[14] = biological target: T2, Amine oxidase [flavin-containing] B; assay: Reversible inhibition of recombinant human MAO-B expressed in baculovirus infected BTI insect cells assessed as residual activity at 20 uM preincubated for 10 mins followed by addition of 2 mM of benzylamine as substrate and further addition of 2 mM of benzylamine at the end of first reaction; conditions: read-out: Activity
[15] = biological target: T2, Amine oxidase [flavin-containing] B; assay: Time-dependent inhibition of recombinant human MAO-B expressed in baculovirus infected BTI insect cells at 20 uM pretreated with compound up to 30 mins followed by addition of benzylamine as substrate

COc1ccc(-c2coc3cc(O)ccc3c2=O)cc1 [FORMONONETIN]
IC50 [1]: 21.2 µM
IC50 [2]: 25.8 µM
Ratio IC50 (Homo sapiens): 1.2
IC50 [3]: 11 µM
IC50 [4]: 31.2 µM

CC(C)=CCc1c(O)cc(O)c2c1O[C@H](c1ccc(O)cc1)CC2=O
IC50 [2]: > 100 µM
Ratio IC50 (Homo sapiens): < 0.39
IC50 [4]: 38.8 µM

C=C(C)[C@H](O)CC/C(C)=C/COc1ccc2ccc(=O)oc2c1
IC50 [3]: 0.5 µM

CC(C)=CCc1c(O)c(CC=C(C)C)c2c(c1O)C(=O)C[C@@H](c1ccc(O)cc1O)O2
IC50 [2]: > 100 µM
IC50 [4]: > 100 µM

COC(=O)/C=C/C=C/c1ccc2c(c1)OCO2 [METHYL PIPERATE]
Ki [5]: 1.3 µM

O=c1c(-c2ccc(O)cc2)coc2cc(O)cc(O)c12 [GENISTEIN]
TDI [6]: Not Active
activity at 8 µM [7]: 25.3%
activity at 8 µM [8]: 59.5%

Oc1ccc2c(c1)OC[C@H]1c3cc4c(cc3O[C@@H]21)OCO4 [MAACKIAIN]
IC50 [2]: 0.68 µM
TDI [9]: Not Active
Ki [10]: 0.054 µM
Ratio IC50 (Homo sapiens): 126
activity at 1.5 µM [11]: 66%
activity at 1.5 µM [12]: 28.7%
IC50 [4]: 85.8 µM

COc1ccc(-c2coc3cc(O)c(CC=C(C)C)c(O)c3c2=O)cc1
IC50 [3]: 0.8 µM

COc1ccc2c(c1O)OC[C@H]1c3cc4c(cc3O[C@@H]21)OCO4
activity at 20 µM [13]: 26.3%
activity at 20 µM [14]: 54.9%
IC50 [2]: 10.3 µM
TDI [15]: Not Active
Ratio IC50 (Homo sapiens): 2
IC50 [4]: 20.3 µM

CC(C)=CCC/C(C)=C/COc1ccc2ccc(=O)oc2c1
IC50 [3]: 0.6 µM
